{"source": "patent US20200261484A1", "about": "“INHIBITION OF AUTISM SPECTRUM DISORDER USING RIBOSOMAL READ-THROUGH COMPOUNDS” (Friedrich Miescher Inst. for Biomedical Research, priority 2017, published 2020)", "tested_on": "Adnp-PTC718 expressing cells", "test": "Streptavidin purification and LC-MS/MS of FLAG/Avi-tagged Adnp-PTC718 from cells with and without aminoglycoside treatment (stop codon read-through, ChAHP complex formation)", "type": "cell-based, mouse", "settings": "Adnp-PTC718 expressing cells treated with 2 mg/ml gentamycin (2.9 mM) or paromomycin (3.2 mM) for 24 hours; LC-MS/MS of streptavidin-purified Adnp-PTC718", "procedure": "FLAG/Avi-tagged Adnp-PTC718 was streptavidin purified from cells with and without aminoglycoside treatment and subjected to LC-MS/MS analysis. Adnp-PTC718 expressing cells were treated with 2 mg/ml gentamycin (2.9 mM) or paromomycin (3.2 mM) for 24 hours. The table depicts total spectral counts, unique peptides and percent sequence coverage for all ChAHP components from the different treatments.\nCells were grown to confluency on 10 cm dish, collected in PBS, and pelleted by 2 min centrifugation at 400 g. All subsequent steps were performed on ice or at 4 C. Pellets were resuspended in 3 ml of Nuclear extract buffer 1 (NEB1: 20 mM HEPES, 10 mM KCl, 1 mM EDTA, 0.1 mM Na3VO4, 0.2% NP-40, 10% glycerol, 1 mM DTT, 1×PIC) followed by centrifugation at 1000 g for 3 min. […] Protein concentration was determined using Bradford assay, and approximately 250 µg of nuclear extracts were used per affinity purification. […] The generated peptides were acidified with TFA to a final concentration of 0.8% and analyzed by capillary liquid chromatography tandem mass spectrometry with an EASY-nLC 1000 using the two-column set-up (Thermo Scientific). […] Protein identification and relative quantification of the proteins was done with MaxQuant version 1.5.3.8 using Andromeda as search engine^33 and label free quantification (LFQ.^34) as described in^35. […]", "data": [{"compound": "NC[C@@H]1O[C@H](O[C@H]2[C@@H](O)[C@H](O[C@@H]3[C@@H](O)[C@H](N)C[C@H](N)[C@H]3O[C@H]3O[C@H](CO)[C@@H](O)[C@H](O)[C@H]3N)O[C@@H]2CO)[C@H](N)[C@@H](O)[C@@H]1O", "note": "[paromomycin]", "values": [{"measurement": "formation of the ChAHP complex (stop codon read-through)", "result": "restore the formation of the ChAHP complex"}]}, {"compound": "gentamycin", "values": [{"measurement": "formation of the ChAHP complex (stop codon read-through)", "result": "restore the formation of the ChAHP complex"}]}]}
